According to ChEMBL document CHEMBL1201862, “PubChem BioAssay data set” (2004):
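Method: 48-hour compound exposure of cells in 96-well plates, five concentrations, linear interpolation of endpoints. GI50: concentration for 50% inhibition of growth.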 The source made the active and inactive calls. Rule as the data show it: active = GI50 up to about 1.1 µM and inactive = higher.

Experiments:
Assay in all cases: NCI anticancer screen, dose series, 48 h
KM-20L2 = tested on: KM-20L2
A549 = tested on: A549
CAKI-1 = tested on: CAKI-1
OVCAR-8 = tested on: OVCAR-8
SK-MEL-5 = tested on: SK-MEL-5
SK-MEL-28 = tested on: SK-MEL-28
HOP-92 = tested on: HOP-92
NCI-H460 = tested on: NCI-H460
SNB-19 = tested on: SNB-19
IGROV-1 = tested on: IGROV-1
RXF 393 = tested on: RXF 393
NCI-H226 = tested on: NCI-H226
COLO 205 = tested on: COLO 205
CCRF-CEM = tested on: CCRF-CEM

Measured: GI50

Nc1nc(N)c(-c2ccccc2)c(C(=O)Nc2ccc(Cl)c(Cl)c2)n1
inactive: KM-20L2 > 100 µM | A549 > 100 µM | CAKI-1 > 100 µM | OVCAR-8 > 100 µM | SK-MEL-5 > 100 µM | SK-MEL-28 > 100 µM | HOP-92 > 100 µM | NCI-H460 > 100 µM | SNB-19 > 100 µM | IGROV-1 > 100 µM | RXF 393 > 100 µM | NCI-H226 > 100 µM

Cc1cccc(/C=N/C23CC4CC(CC(C4)C2)C3)c1
inactive: KM-20L2 > 100 µM | A549 > 100 µM | CAKI-1 > 100 µM | OVCAR-8 > 100 µM | COLO 205 > 100 µM | SK-MEL-5 > 100 µM | SK-MEL-28 > 100 µM | HOP-92 > 100 µM | NCI-H460 > 100 µM | SNB-19 > 100 µM | CCRF-CEM > 100 µM | IGROV-1 > 100 µM | RXF 393 > 100 µM | NCI-H226 > 100 µM

COc1ccc(C2CC(C)=Nc3c(O)nc(S)nc3N2)cc1 (stereo not given)
inactive: KM-20L2 16.7 µM | A549 16.9 µM | CAKI-1 27.6 µM | OVCAR-8 20 µM | COLO 205 18.6 µM | SK-MEL-5 16.7 µM | SK-MEL-28 27 µM | HOP-92 > 100 µM | NCI-H460 16.6 µM | SNB-19 18.7 µM | CCRF-CEM 24.2 µM | IGROV-1 18.8 µM | RXF 393 18.8 µM | NCI-H226 17.2 µM

O=C1C(c2ccccc2)=C(c2ccccc2)C(c2ccc(-c3ccc(C4=C(c5ccccc5)C(=O)C(c5ccccc5)=C4c4ccccc4)cc3)cc2)=C1c1ccccc1
inactive: KM-20L2 > 100 µM | A549 > 100 µM | CAKI-1 > 100 µM | OVCAR-8 > 100 µM | COLO 205 > 100 µM | SK-MEL-5 > 100 µM | HOP-92 > 100 µM | NCI-H460 > 100 µM | SNB-19 > 100 µM | CCRF-CEM > 100 µM | IGROV-1 > 100 µM | RXF 393 > 100 µM | NCI-H226 > 100 µM

O=C1CC2CC=C[C@H]3c4cc5c(cc4C(=O)N1C23)OCO5 (stereo not given in full)
inactive: KM-20L2 > 50 µM | A549 > 50 µM | OVCAR-8 > 50 µM | COLO 205 > 50 µM | SK-MEL-28 > 50 µM | NCI-H460 > 50 µM | SNB-19 > 50 µM | CCRF-CEM > 50 µM | IGROV-1 > 50 µM | RXF 393 > 50 µM | NCI-H226 > 50 µM

COC[C@@H]1[C@H]2OC(C)(C)O[C@H]2C(=O)N1C(=O)c1ccc(OC)cc1
inactive: KM-20L2 > 100 µM | A549 > 100 µM | CAKI-1 > 100 µM | OVCAR-8 > 100 µM | COLO 205 > 100 µM | SK-MEL-5 > 100 µM | SK-MEL-28 > 100 µM | HOP-92 > 100 µM | NCI-H460 > 100 µM | SNB-19 > 100 µM | CCRF-CEM > 100 µM | IGROV-1 > 100 µM | RXF 393 > 100 µM | NCI-H226 > 100 µM

CCOC(=O)[C@@]12C(C)=CC(=O)O[C@]1(C)C[C@H]2C#N
inactive: KM-20L2 > 100 µM | A549 > 100 µM | OVCAR-8 > 100 µM | COLO 205 > 100 µM | SK-MEL-5 > 100 µM | SK-MEL-28 > 100 µM | HOP-92 > 100 µM | NCI-H460 > 100 µM | SNB-19 > 100 µM | CCRF-CEM > 100 µM | IGROV-1 > 100 µM | RXF 393 > 100 µM | NCI-H226 50.9 µM

COc1cc(Br)c(CC2NCCc3cc(OC)c(OC)cc32)cc1OC (stereo not given)
inactive: KM-20L2 41.2 µM | A549 81.1 µM | CAKI-1 68.7 µM | OVCAR-8 86.1 µM | COLO 205 32.7 µM | SK-MEL-28 70.5 µM | HOP-92 16.5 µM | NCI-H460 55.2 µM | SNB-19 > 100 µM | CCRF-CEM > 100 µM | NCI-H226 32.8 µM

COC(=O)/C(C)=C/[N+](=O)[O-]
inactive: KM-20L2 25 µM | A549 21.7 µM | CAKI-1 2.57 µM | OVCAR-8 22.2 µM | COLO 205 4.67 µM | SK-MEL-5 23 µM | HOP-92 9.53 µM | NCI-H460 22.2 µM | SNB-19 17.1 µM | CCRF-CEM 2.59 µM | IGROV-1 20.9 µM | RXF 393 21.2 µM

COc1ccc(C2COc3c(ccc(OC)c3OC)C2=O)cc1OC (stereo not given)
inactive: KM-20L2 > 100 µM | A549 > 100 µM | CAKI-1 > 100 µM | OVCAR-8 > 100 µM | COLO 205 > 100 µM | SK-MEL-5 > 100 µM | SK-MEL-28 > 100 µM | HOP-92 > 100 µM | NCI-H460 > 100 µM | SNB-19 > 100 µM | CCRF-CEM > 100 µM | IGROV-1 > 100 µM | RXF 393 > 100 µM | NCI-H226 > 100 µM

O=c1c2ccccc2nc(-c2cccc(Cl)c2)n1NC1OC(CO)C(O)C(O)C1O (stereo not given)
inactive: KM-20L2 > 100 µM | A549 > 100 µM | CAKI-1 > 100 µM | OVCAR-8 > 100 µM | COLO 205 > 100 µM | SK-MEL-5 > 100 µM | SK-MEL-28 > 100 µM | HOP-92 > 100 µM | NCI-H460 > 100 µM | SNB-19 > 100 µM | CCRF-CEM 73.3 µM | IGROV-1 > 100 µM | NCI-H226 > 100 µM

O=c1[nH]c(=O)n(C2CC(O)C(CO)O2)cc1C#Cc1ccc(C(F)(F)F)cc1 (stereo not given)
inactive: KM-20L2 > 100 µM | A549 > 100 µM | OVCAR-8 > 100 µM | COLO 205 > 100 µM | SK-MEL-5 > 100 µM | SK-MEL-28 > 100 µM | HOP-92 23.9 µM | NCI-H460 > 100 µM | SNB-19 > 100 µM | CCRF-CEM > 100 µM | IGROV-1 > 100 µM | RXF 393 > 100 µM | NCI-H226 > 100 µM

O=C1C=C(Nc2ccc(Cl)cc2C(=O)c2ccccc2)c2ccccc2C1=O
inactive: KM-20L2 > 100 µM | A549 > 100 µM | CAKI-1 > 100 µM | OVCAR-8 > 100 µM | COLO 205 > 100 µM | SK-MEL-5 > 100 µM | SK-MEL-28 > 100 µM | NCI-H460 > 100 µM | SNB-19 > 100 µM | CCRF-CEM > 100 µM | IGROV-1 > 100 µM | RXF 393 > 100 µM | NCI-H226 > 100 µM

C[C@]12CCC(=O)C=C1CC[C@@H]1C2CC[C@]2(C)Nc3[nH]ncc3CC12 (stereo not given in full)
inactive: KM-20L2 > 100 µM | A549 > 100 µM | CAKI-1 > 100 µM | OVCAR-8 > 100 µM | SK-MEL-5 > 100 µM | SK-MEL-28 > 100 µM | NCI-H460 > 100 µM | CCRF-CEM > 100 µM | IGROV-1 > 100 µM | RXF 393 > 100 µM | NCI-H226 60.3 µM

O=C(N/N=C/c1cc(Cl)cc(Cl)c1O)c1ccncc1
inactive: KM-20L2 37.3 µM | A549 > 100 µM | OVCAR-8 70.6 µM | COLO 205 > 100 µM | SK-MEL-5 81.3 µM | SK-MEL-28 > 100 µM | NCI-H460 39 µM | SNB-19 > 100 µM | CCRF-CEM 31.2 µM | IGROV-1 63.5 µM | RXF 393 > 100 µM | NCI-H226 > 100 µM
